Test results taken from a melting point compilation (Tetko et al.; mined from patent text by program, amines drawn as free bases though some values may be those of a salt).

| Structure (SMILES) | melting point |
| --- | --- |
| CC1Cc2cc3c(cc2C(c2ccc([N+](=O)[O-])cc2)=NN1c1nnn[nH]1)OCO3 (stereo unspecified) | 263 to 264 °C |
| O=C1Cc2cc(F)cc(C(=O)c3ccc(F)cc3)c2N1 | 195 to 196 °C |
| COC(=O)c1ccc(-c2nc(-c3ccc4c(c3)C(C)(C)CCC4(C)C)cs2)cc1 | 138 to 140 °C |
| CCOC(=O)Cc1c(C(=O)O)c(C)cn1C | 182 to 185 °C |
| O=C(NOCCBr)Nc1ccc(Cl)c(Cl)c1 | 126 °C |
| Cc1ccc2ccc(NCc3c(C)c(CNc4ccc5ccc(C)nc5n4)c(C)c(CNc4ccc5ccc(C)nc5n4)c3C)nc2n1 | 207 to 208 °C |
| CCC(=O)NC1(c2ccc(C(C)C)cc2OC(=O)CC)C(=O)c2ccccc2C1=O | 173 to 175 °C |
| COC(=O)CCSc1nc(C(N)=O)cs1 | 151 to 152 °C |
| Cc1c(-c2ccccc2)oc2cc(OCC3CO3)ccc2c1=O (stereo unspecified) | 231 to 235 °C |
| C[Si](C)(C)C#CC1(O)CCCCC1 | 72 to 73 °C |
| CCOCCNc1nc(S)nc(N[C@@H](C)c2ccccc2)n1 | 53 °C |
| CN1C(=O)C(=NO)C(=NCCCCCC(=O)O)N(C)C1=O | 246 to 248 °C |
| CS(=O)(=O)OCc1cc(OCc2ccccc2)cc(OCc2ccccc2)c1 | 85 to 86 °C |
| OCCCOc1nc(N2CCCCC2)c2nc(OCCCO)nc(N3CCCCC3)c2n1 | 154 to 156 °C |
| CSc1nccc(Oc2ccc(NC(=O)c3cc(F)cc(N4CCOCC4)c3)c3ccccc23)n1 | 189 to 190 °C |
| CC(C)N(N)C(=O)c1ccc(-c2ccc(Cl)cc2)o1 | 142 to 144 °C |
| CC(=N)Nc1cccc(Br)c1 | 208 to 210 °C |
| Cc1oc(-c2ccccc2)nc1COc1ccc(COc2nn(Cc3ccccc3)cc2CCC(=O)O)cn1 | 130 to 131 °C |
| CCc1nnc(C2=C(OC(=O)c3ccccc3)c3ccccc3S(=O)(=O)N2C)o1 | 191 to 192 °C |
| COc1ccc(S(=O)(=O)NC(=O)c2ccc(C(=O)OC(C)C)nc2)cc1 | 215 to 216 °C |
| OCC1CCN(c2ccncc2)CC1 | 183 to 185 °C |
| COCCOc1ccc([N+](=O)[O-])cc1S(=O)(=O)Cl | 74 to 74.5 °C |
| CC1(C)OC(=O)C(Sc2nccs2)=C1c1ccc(S(C)(=O)=O)cc1 | 174 to 176 °C |
| CC(C)(CCNS(=O)(=O)c1ccc(Cl)cc1)CC(=O)O | 107 to 108 °C |
| COc1ccc2c(c1)c(C(=O)C(=O)NC1=CC(=O)OC1)cn2Cc1ccc(Cl)cc1 | 238 to 240 °C |
| CSc1nc(-n2cnc([N+](=O)[O-])n2)c2cc(Br)ccc2n1 | 204 °C |

| Structure (SMILES) | melting point |
| --- | --- |
| CC1(CNC(=O)OC(C)(C)C)CN(c2cccc(Cl)n2)C1 | 108 to 111 °C |
| Nc1cccc(-c2ccc(CCN3CCc4ccccc4C3)cc2)n1 | 130 to 132 °C |
| CC1(C)[C@@H](CNc2ncccc2C#N)CC[C@@]1(C)NCC(=O)N1C[C@@H](F)C[C@H]1C#N | 96 to 99 °C |
| CC(C)(C)c1ccc(CC(=O)CCCl)cc1 | 46 to 49 °C |
| CS[C@H]([C@@H](C)C(=O)O)[C@@H]1CCCN1C(=O)OC(C)(C)C | 141 to 142 °C |
| COCCc1nc2c(N)nc3ccccc3c2n1CCCCCS(=O)(=O)c1ccccc1 | 172 to 175 °C |
| CSc1ccc2ccc3c(SC)cc(SC)c4ccc1c2c34 | 235 to 240 °C |
| COC(=O)c1cc(NC(=O)C(N)c2ccc3c(c2)C(C)(C)CCC3(C)C)cn1C (stereo unspecified) | 122 to 124 °C |
| CSc1ccc(C2=NNC(C(=O)OC(C)(C)C)S2)cc1 (stereo unspecified) | 71 to 72 °C |
| CCOC(=O)c1sc(Oc2ccc(NC(=O)OC(C)(C)C)cc2)c2c1CCc1cnn(C)c1-2 | 186 to 187 °C |
| CCOC(=O)C(CC(=O)c1cccc(OC)c1)(NC(C)=O)C(=O)OCC | 119 to 120 °C |
| O=S(=O)(C(=Cc1ccc(Cl)cc1)SC(=Cc1ccc(Cl)cc1)S(=O)(=O)c1ccccc1)c1ccccc1 | 251 °C |
| O[C@@H]1c2cc3c(cc2CC[C@H]1NCCc1ccccc1)CCO3 (relative stereo) | 144 to 148 °C |
| Nc1ccnc(-c2nnn(Cc3cc(C(F)(F)F)cc(C(F)(F)F)c3)c2-c2ccccc2)c1C(=O)c1ccccc1Cl | 156 °C |
| COC(=O)NC(C)Cc1cccc([N+](=O)[O-])c1 (stereo unspecified) | 104 to 105 °C |
| CSC(=C[N+](=O)[O-])Nc1ccc(Cl)nc1 | 169 to 171 °C |
| O=Cc1nccnc1OCc1ccccc1 | 69.4 °C |
| Cc1cc2oc(=O)c3c(c2cc1C)CCN(CCN1CCCCC1)C3 | 142 to 145 °C |
| O=C(C=Cc1ccc(F)c(F)c1)c1ccccc1O | 131 to 133 °C |
| CC(=O)N1c2ccccc2CC1C(N)=NO (stereo unspecified) | 204 to 205 °C |
| COc1ccc2c(c1)CCC(CN1CCC3(CC1)C(=O)NCN3c1ccccc1)C2=O (stereo unspecified) | 177 to 179 °C |
| CN1CCN(c2nc3sc4c(NCCCN5CCOCC5)ncnc4c3c3c2COC(C)(C)C3)CC1 | 90.6 to 92.4 °C |
| CC1(C)C(=O)NC(c2ccc(NC(=O)CCl)cc2)c2ccccc21 (stereo unspecified) | 218 to 219 °C |
| O=C(C1CC1)N1CCC2(CC1)OCCO2 | 72 to 74 °C |
| FC(F)(F)c1cc(CO[C@H]2CCCN(Cc3cccnn3)[C@H]2c2ccccc2)cc(C(F)(F)F)c1 | 111 to 113 °C |
